Where “and” joins values, the source holds several entries; their conditions need not be identical. Identical values can stand only once.
Tests used:
Experiment in all cases: biochemical
Format in all cases: binding
[1] = molecular target: SfurOBP11 (Sogatella furcifera, UniProt V5T6E3)
In short: (§1)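 Protein 2.0 µM + 1-NPN 2.0 µM, 50 mM Tris-HCl pH 7.4; competitor odorants 2, 4 … 20 µM final; read 2 min post-addition, ex 337/em 390–490 nm; n=3. K1-NPN from 1-NPN titration/Scatchard; Ki from IC50 corrected for free 1-NPN.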

[2] = molecular target: SfurOBP2 (Sogatella furcifera, UniProt V5T759)
SfurOBP2, sequence (V5T759 entry or part of it): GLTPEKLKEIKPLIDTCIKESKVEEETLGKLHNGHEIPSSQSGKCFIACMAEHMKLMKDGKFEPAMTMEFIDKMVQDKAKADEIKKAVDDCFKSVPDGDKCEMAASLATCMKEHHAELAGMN
In short: as §1

[3] = molecular target: SfurOBP1 (Sogatella furcifera, UniProt V5T8N5); settings: for Fluorescence competitive binding assay, fluorescence intensity: OBP1, three replicate columns
SfurOBP1, sequence (V5T8N5 entry or part of it): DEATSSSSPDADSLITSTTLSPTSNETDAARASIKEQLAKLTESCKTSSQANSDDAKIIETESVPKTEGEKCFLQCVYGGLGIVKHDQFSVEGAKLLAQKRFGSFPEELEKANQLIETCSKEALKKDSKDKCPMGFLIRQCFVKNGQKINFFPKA
In short: as §1

[4] = molecular target: SfurOBP3 (Sogatella furcifera, UniProt V5T818); settings: for Fluorescence competitive binding assay, fluorescence intensity: OBP3, three replicate columns
SfurOBP3, sequence (V5T818 entry or part of it): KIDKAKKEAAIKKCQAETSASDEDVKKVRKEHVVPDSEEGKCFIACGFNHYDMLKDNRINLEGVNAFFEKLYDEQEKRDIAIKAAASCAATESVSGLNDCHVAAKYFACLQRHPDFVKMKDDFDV
In short: as §1

SfurOBP11, sequence (V5T6E3 entry or part of it): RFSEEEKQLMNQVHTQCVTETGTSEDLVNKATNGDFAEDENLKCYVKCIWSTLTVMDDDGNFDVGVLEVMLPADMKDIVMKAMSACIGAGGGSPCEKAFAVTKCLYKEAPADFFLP

In the case of `CCCCCCCCCCCCO` [lauryl alcohol], the IC50 ([1]; SfurOBP11, protein and 1-NPN both 2.0 µM, competitor 2-20 µM, read-out: IC50) is reported as greater than 20 µM, the “Fluorescence intensity, fluorescence competitive binding assay, OBP11” value (shortened to “Fluorescence intensity … OBP11”) ([1]; ligand concentration 2, replicate 1) is reported as 24217 and the “Fluorescence intensity … OBP11” value ([1]; ligand concentration 2, replicate 2) is reported as 24290. For the same compound, the “Fluorescence intensity … OBP11” value ([1]; ligand concentration 2, replicate 3) was 24783, the “Fluorescence intensity … OBP11” value ([1]; ligand concentration 4, replicate 1) was 24290 and the “Fluorescence intensity … OBP11” value ([1]; ligand concentration 4, replicate 2) was 24322. For the same compound, the “Fluorescence intensity … OBP11” value ([1]; ligand concentration 4, replicate 3) was 23442, the “Fluorescence intensity … OBP11” value ([1]; ligand concentration 6, replicate 1) was 24952 and the “Fluorescence intensity … OBP11” value ([1]; ligand concentration 6, replicate 2) was 22901. The “Fluorescence intensity … OBP11” value ([1]; ligand concentration 6, replicate 3) was 24534, the “Fluorescence intensity … OBP11” value ([1]; ligand concentration 8, replicate 1) was 24078 and the “Fluorescence intensity … OBP11” value ([1]; ligand concentration 8, replicate 2) was 21947. For the same compound, the “Fluorescence intensity … OBP11” value ([1]; ligand concentration 8, replicate 3) was 24599, the “Fluorescence intensity … OBP11” value ([1]; ligand concentration 10, replicate 1) was 22957 and the “Fluorescence intensity … OBP11” value ([1]; ligand concentration 10, replicate 2) was 24005. For the same compound, the “Fluorescence intensity … OBP11” value ([1]; ligand concentration 10, replicate 3) was 23087, the “Fluorescence intensity … OBP11” value ([1]; ligand concentration 12, replicate 1) was 20961 and the “Fluorescence intensity … OBP11” value ([1]; ligand concentration 12, replicate 2) was 21769. For the same compound, the “Fluorescence intensity … OBP11” value ([1]; ligand concentration 12, replicate 3) was 22579, the “Fluorescence intensity … OBP11” value ([1]; ligand concentration 14, replicate 1) was 19736 and the “Fluorescence intensity … OBP11” value ([1]; ligand concentration 14, replicate 2) was 20687. The “Fluorescence intensity … OBP11” value ([1]; ligand concentration 14, replicate 3) was 20422, the “Fluorescence intensity … OBP11” value ([1]; ligand concentration 16, replicate 1) was 16888 and the “Fluorescence intensity … OBP11” value ([1]; ligand concentration 16, replicate 2) was 20499. The “Fluorescence intensity … OBP11” value ([1]; ligand concentration 16, replicate 3) was 18999, the “Fluorescence intensity … OBP11” value ([1]; ligand concentration 18, replicate 1) was 18870 and the “Fluorescence intensity … OBP11” value ([1]; ligand concentration 18, replicate 2) was 19005. For the same compound, the “Fluorescence intensity … OBP11” value ([1]; ligand concentration 18, replicate 3) was 19199, the “Fluorescence intensity … OBP11” value ([1]; ligand concentration 20, replicate 1) was 20952 and the “Fluorescence intensity … OBP11” value ([1]; ligand concentration 20, replicate 2) was 19127. The “Fluorescence intensity … OBP11” value ([1]; ligand concentration 20, replicate 3) was 18042, the IC50 ([2]; SfurOBP2, protein and 1-NPN both 2.0 µM, competitor 2-20 µM, read-out: IC50) was greater than 20 µM and the “Fluorescence competitive binding assay, OBP2 (raw fluorescence reading)” value ([2]; ligand concentration 2 (unit not given), replicate column 1 of 3) was 17977. For the same compound, the “Fluorescence competitive binding assay, OBP2 (raw fluorescence reading)” value ([2]; ligand concentration 2 (unit not given), replicate column 2 of 3) was 18256, the “Fluorescence competitive binding assay, OBP2 (raw fluorescence reading)” value ([2]; ligand concentration 2 (unit not given), replicate column 3 of 3) was 18222 and the “Fluorescence competitive binding assay, OBP2 (raw fluorescence reading)” value ([2]; ligand concentration 4 (unit not given), replicate column 1 of 3) was 21586. For the same compound, the “Fluorescence competitive binding assay, OBP2 (raw fluorescence reading)” value ([2]; ligand concentration 4 (unit not given), replicate column 2 of 3) was 19639, the “Fluorescence competitive binding assay, OBP2 (raw fluorescence reading)” value ([2]; ligand concentration 4 (unit not given), replicate column 3 of 3) was 16260 and the “Fluorescence competitive binding assay, OBP2 (raw fluorescence reading)” value ([2]; ligand concentration 6 (unit not given), replicate column 1 of 3) was 18208. For the same compound, the “Fluorescence competitive binding assay, OBP2 (raw fluorescence reading)” value ([2]; ligand concentration 6 (unit not given), replicate column 2 of 3) was 18064, the “Fluorescence competitive binding assay, OBP2 (raw fluorescence reading)” value ([2]; ligand concentration 6 (unit not given), replicate column 3 of 3) was 15812 and the “Fluorescence competitive binding assay, OBP2 (raw fluorescence reading)” value ([2]; ligand concentration 8 (unit not given), replicate column 1 of 3) was 16946. The “Fluorescence competitive binding assay, OBP2 (raw fluorescence reading)” value ([2]; ligand concentration 8 (unit not given), replicate column 2 of 3) was 12445, the “Fluorescence competitive binding assay, OBP2 (raw fluorescence reading)” value ([2]; ligand concentration 8 (unit not given), replicate column 3 of 3) was 14953 and the “Fluorescence competitive binding assay, OBP2 (raw fluorescence reading)” value ([2]; ligand concentration 10 (unit not given), replicate column 1 of 3) was 16387. For the same compound, the “Fluorescence competitive binding assay, OBP2 (raw fluorescence reading)” value ([2]; ligand concentration 10 (unit not given), replicate column 2 of 3) was 15939, the “Fluorescence competitive binding assay, OBP2 (raw fluorescence reading)” value ([2]; ligand concentration 10 (unit not given), replicate column 3 of 3) was 15218 and the “Fluorescence competitive binding assay, OBP2 (raw fluorescence reading)” value ([2]; ligand concentration 12 (unit not given), replicate column 1 of 3) was 16171. The “Fluorescence competitive binding assay, OBP2 (raw fluorescence reading)” value ([2]; ligand concentration 12 (unit not given), replicate column 2 of 3) was 15043, the “Fluorescence competitive binding assay, OBP2 (raw fluorescence reading)” value ([2]; ligand concentration 12 (unit not given), replicate column 3 of 3) was 14391 and the “Fluorescence competitive binding assay, OBP2 (raw fluorescence reading)” value ([2]; ligand concentration 14 (unit not given), replicate column 1 of 3) was 14286. The “Fluorescence competitive binding assay, OBP2 (raw fluorescence reading)” value ([2]; ligand concentration 14 (unit not given), replicate column 2 of 3) was 13952, the “Fluorescence competitive binding assay, OBP2 (raw fluorescence reading)” value ([2]; ligand concentration 14 (unit not given), replicate column 3 of 3) was 14683 and the “Fluorescence competitive binding assay, OBP2 (raw fluorescence reading)” value ([2]; ligand concentration 16 (unit not given), replicate column 1 of 3) was 13014. The “Fluorescence competitive binding assay, OBP2 (raw fluorescence reading)” value ([2]; ligand concentration 16 (unit not given), replicate column 2 of 3) was 12749, the “Fluorescence competitive binding assay, OBP2 (raw fluorescence reading)” value ([2]; ligand concentration 16 (unit not given), replicate column 3 of 3) was 13096 and the “Fluorescence competitive binding assay, OBP2 (raw fluorescence reading)” value ([2]; ligand concentration 18 (unit not given), replicate column 1 of 3) was 12746. The “Fluorescence competitive binding assay, OBP2 (raw fluorescence reading)” value ([2]; ligand concentration 18 (unit not given), replicate column 2 of 3) was 12759, the “Fluorescence competitive binding assay, OBP2 (raw fluorescence reading)” value ([2]; ligand concentration 18 (unit not given), replicate column 3 of 3) was 12788 and the “Fluorescence competitive binding assay, OBP2 (raw fluorescence reading)” value ([2]; ligand concentration 20 (unit not given), replicate column 1 of 3) was 13087. The “Fluorescence competitive binding assay, OBP2 (raw fluorescence reading)” value ([2]; ligand concentration 20 (unit not given), replicate column 2 of 3) was 12766, the “Fluorescence competitive binding assay, OBP2 (raw fluorescence reading)” value ([2]; ligand concentration 20 (unit not given), replicate column 3 of 3) was 13106 and the “Fluorescence competitive binding assay, fluorescence intensity” value ([3]; ligand concentration 2 (μM)) was 7624 and 6465 and 8545. For the same compound, the “Fluorescence competitive binding assay, fluorescence intensity” value ([3]; ligand concentration 4 (μM)) was 7313 and 7318 and 7353, the “Fluorescence competitive binding assay, fluorescence intensity” value ([3]; ligand concentration 6 (μM)) was 7143 and 7275 and 7922 and the “Fluorescence competitive binding assay, fluorescence intensity” value ([3]; ligand concentration 8 (μM)) was 7358 and 7784 and 8873. The “Fluorescence competitive binding assay, fluorescence intensity” value ([3]; ligand concentration 10 (μM)) was 7141 and 7560 and 7926, the “Fluorescence competitive binding assay, fluorescence intensity” value ([3]; ligand concentration 12 (μM)) was 7810 and 7463 and 8566 and the “Fluorescence competitive binding assay, fluorescence intensity” value ([3]; ligand concentration 14 (μM)) was 7736 and 8413 and 7236. The “Fluorescence competitive binding assay, fluorescence intensity” value ([3]; ligand concentration 16 (μM)) was 8777 and 6935 and 7055, the “Fluorescence competitive binding assay, fluorescence intensity” value ([3]; ligand concentration 18 (μM)) was 9193 and 9578 and 9152 and the “Fluorescence competitive binding assay, fluorescence intensity” value ([3]; ligand concentration 20 (μM)) was 11048 and 9816 and 8594. The IC50 ([3]; SfurOBP1, protein and 1-NPN both 2.0 µM, competitor 2-20 µM, read-out: IC50) was greater than 20 µM, the “Fluorescence competitive binding assay, fluorescence intensity” value ([4]; ligand concentration 2) was 67563 and 64113 and 67485 and the “Fluorescence competitive binding assay, fluorescence intensity” value ([4]; ligand concentration 4) was 70812 and 72838 and 74184. The “Fluorescence competitive binding assay, fluorescence intensity” value ([4]; ligand concentration 6) was 65634 and 64114 and 68940, the “Fluorescence competitive binding assay, fluorescence intensity” value ([4]; ligand concentration 8) was 62878 and 67093 and 68072 and the “Fluorescence competitive binding assay, fluorescence intensity” value ([4]; ligand concentration 10) was 60134 and 69541 and 65795. For the same compound, the “Fluorescence competitive binding assay, fluorescence intensity” value ([4]; ligand concentration 12) was 68479 and 64625 and 78735, the “Fluorescence competitive binding assay, fluorescence intensity” value ([4]; ligand concentration 14) was 60140 and 40039 and 67409 and the “Fluorescence competitive binding assay, fluorescence intensity” value ([4]; ligand concentration 16) was 38861 and 39269 and 45097. The “Fluorescence competitive binding assay, fluorescence intensity” value ([4]; ligand concentration 18) was 51398 and 59369 and 52474, the “Fluorescence competitive binding assay, fluorescence intensity” value ([4]; ligand concentration 20) was 68555 and 48789 and 43446 and the IC50 ([4]; SfurOBP3, protein and 1-NPN both 2.0 µM, competitor 2-20 µM, read-out: IC50) was greater than 20 µM.

— PMC6409085, “Three odorant-binding proteins are involved in the behavioral response of Sogatella furcifera to rice plant volatiles” (PeerJ, 2019)
